We go through 36 compounds from ChEMBL document CHEMBL1140800, “Identification of 2-amino-5-(thioaryl)thiazoles as inhibitors of nerve growth factor receptor TrkA” (Bioorg Med Chem Lett, 2008).

Assay [1] has as its target Insulin-like growth factor 1 receptor (Homo sapiens, UniProt P08069). As to the kind of experiment: Inhibition of IGF1R.
For assay [2], the system named is SH-SY5Y. Description: Antiproliferative activity against human SH-SY5Y cells after 3 days. Particulars: 72 h. Type of assay: functional, cell-based.
Assay [3] can be described thus: Antiproliferative activity against TrkA deficient rat RK3E cells after 3 days. Type of assay: functional, cell-based. Conditions: 72 h.
Assay [4] has as its target Cyclin-dependent kinase 2 (Homo sapiens, UniProt P24941). As to the kind of experiment: Inhibition of CDK2.
For assay [5], the target named is Hepatocyte growth factor receptor (Homo sapiens, UniProt P08581). As to the kind of experiment: Inhibition of Met.
Assay [6] is described as follows: Inhibition of VEGFR at 2 uM.
Assay [7] deals with High affinity nerve growth factor receptor (Homo sapiens, UniProt P04629). Description: Inhibition of TrkA.
Assay [8] in a line: Antiproliferative activity against rat RKE cells expressing CD8-TrkA after 3 days. The class given is functional, cell-based. Particulars: 72 h.
A short description of assay [9]: Inhibition of VEGFR.

High affinity nerve growth factor receptor, sequence (P04629 whole entry): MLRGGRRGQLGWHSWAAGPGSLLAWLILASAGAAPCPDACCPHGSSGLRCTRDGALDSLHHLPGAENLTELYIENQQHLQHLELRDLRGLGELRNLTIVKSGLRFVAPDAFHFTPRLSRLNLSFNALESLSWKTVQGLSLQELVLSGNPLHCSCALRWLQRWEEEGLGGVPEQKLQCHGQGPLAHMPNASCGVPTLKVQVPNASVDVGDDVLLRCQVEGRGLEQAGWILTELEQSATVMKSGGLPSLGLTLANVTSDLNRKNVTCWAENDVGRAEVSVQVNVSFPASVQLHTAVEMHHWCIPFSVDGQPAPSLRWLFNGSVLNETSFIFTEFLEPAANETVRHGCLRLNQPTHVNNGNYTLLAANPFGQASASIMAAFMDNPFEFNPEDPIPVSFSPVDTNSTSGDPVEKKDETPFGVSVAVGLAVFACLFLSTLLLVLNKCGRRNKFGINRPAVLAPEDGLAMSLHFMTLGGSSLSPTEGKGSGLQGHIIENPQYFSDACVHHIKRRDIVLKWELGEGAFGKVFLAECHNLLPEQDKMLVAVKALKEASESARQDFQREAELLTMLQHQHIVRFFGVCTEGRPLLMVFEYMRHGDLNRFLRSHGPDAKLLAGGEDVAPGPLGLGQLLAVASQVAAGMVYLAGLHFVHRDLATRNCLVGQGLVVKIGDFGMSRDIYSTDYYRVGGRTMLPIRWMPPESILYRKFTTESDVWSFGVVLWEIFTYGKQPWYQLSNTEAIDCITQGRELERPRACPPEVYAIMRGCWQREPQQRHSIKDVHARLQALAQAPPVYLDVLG
Insulin-like growth factor 1 receptor, sequence (P08069 31-736 limits assumed): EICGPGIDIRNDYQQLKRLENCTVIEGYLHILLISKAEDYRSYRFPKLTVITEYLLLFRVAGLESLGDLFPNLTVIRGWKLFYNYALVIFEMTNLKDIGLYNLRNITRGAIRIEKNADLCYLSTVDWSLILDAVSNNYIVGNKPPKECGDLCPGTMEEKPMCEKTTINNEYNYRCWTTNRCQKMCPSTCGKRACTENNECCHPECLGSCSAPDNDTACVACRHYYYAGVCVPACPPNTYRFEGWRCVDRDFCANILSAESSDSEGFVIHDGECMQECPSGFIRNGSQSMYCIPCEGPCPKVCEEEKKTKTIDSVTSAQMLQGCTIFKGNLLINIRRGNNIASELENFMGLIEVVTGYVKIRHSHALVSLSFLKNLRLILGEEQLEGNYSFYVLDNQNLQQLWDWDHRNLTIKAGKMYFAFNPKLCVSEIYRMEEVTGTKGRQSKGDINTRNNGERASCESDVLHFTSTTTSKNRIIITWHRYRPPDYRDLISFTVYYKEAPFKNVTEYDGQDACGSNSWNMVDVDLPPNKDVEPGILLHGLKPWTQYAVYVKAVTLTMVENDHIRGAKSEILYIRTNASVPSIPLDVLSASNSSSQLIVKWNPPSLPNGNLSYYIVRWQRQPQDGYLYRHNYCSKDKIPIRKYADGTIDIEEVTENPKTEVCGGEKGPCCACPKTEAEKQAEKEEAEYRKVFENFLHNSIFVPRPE
Insulin-like growth factor 1 receptor, sequence (P08069 741-1367 limits assumed): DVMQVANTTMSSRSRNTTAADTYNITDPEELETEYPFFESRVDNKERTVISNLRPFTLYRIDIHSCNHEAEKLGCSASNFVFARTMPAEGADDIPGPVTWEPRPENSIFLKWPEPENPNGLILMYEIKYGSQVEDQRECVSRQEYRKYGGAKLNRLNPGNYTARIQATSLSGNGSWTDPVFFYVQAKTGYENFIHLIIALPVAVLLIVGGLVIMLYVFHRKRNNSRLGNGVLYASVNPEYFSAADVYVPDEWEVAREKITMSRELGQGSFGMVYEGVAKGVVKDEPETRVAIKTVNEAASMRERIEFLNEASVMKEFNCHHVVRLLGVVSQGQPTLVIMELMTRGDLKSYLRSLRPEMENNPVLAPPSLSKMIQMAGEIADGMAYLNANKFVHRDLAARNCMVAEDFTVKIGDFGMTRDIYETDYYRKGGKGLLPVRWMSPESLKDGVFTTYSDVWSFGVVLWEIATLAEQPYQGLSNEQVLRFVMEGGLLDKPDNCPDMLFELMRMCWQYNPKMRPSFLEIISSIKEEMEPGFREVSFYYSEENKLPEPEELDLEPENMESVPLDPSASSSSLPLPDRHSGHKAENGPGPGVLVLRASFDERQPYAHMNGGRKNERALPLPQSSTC
Hepatocyte growth factor receptor, sequence (P08581 whole entry): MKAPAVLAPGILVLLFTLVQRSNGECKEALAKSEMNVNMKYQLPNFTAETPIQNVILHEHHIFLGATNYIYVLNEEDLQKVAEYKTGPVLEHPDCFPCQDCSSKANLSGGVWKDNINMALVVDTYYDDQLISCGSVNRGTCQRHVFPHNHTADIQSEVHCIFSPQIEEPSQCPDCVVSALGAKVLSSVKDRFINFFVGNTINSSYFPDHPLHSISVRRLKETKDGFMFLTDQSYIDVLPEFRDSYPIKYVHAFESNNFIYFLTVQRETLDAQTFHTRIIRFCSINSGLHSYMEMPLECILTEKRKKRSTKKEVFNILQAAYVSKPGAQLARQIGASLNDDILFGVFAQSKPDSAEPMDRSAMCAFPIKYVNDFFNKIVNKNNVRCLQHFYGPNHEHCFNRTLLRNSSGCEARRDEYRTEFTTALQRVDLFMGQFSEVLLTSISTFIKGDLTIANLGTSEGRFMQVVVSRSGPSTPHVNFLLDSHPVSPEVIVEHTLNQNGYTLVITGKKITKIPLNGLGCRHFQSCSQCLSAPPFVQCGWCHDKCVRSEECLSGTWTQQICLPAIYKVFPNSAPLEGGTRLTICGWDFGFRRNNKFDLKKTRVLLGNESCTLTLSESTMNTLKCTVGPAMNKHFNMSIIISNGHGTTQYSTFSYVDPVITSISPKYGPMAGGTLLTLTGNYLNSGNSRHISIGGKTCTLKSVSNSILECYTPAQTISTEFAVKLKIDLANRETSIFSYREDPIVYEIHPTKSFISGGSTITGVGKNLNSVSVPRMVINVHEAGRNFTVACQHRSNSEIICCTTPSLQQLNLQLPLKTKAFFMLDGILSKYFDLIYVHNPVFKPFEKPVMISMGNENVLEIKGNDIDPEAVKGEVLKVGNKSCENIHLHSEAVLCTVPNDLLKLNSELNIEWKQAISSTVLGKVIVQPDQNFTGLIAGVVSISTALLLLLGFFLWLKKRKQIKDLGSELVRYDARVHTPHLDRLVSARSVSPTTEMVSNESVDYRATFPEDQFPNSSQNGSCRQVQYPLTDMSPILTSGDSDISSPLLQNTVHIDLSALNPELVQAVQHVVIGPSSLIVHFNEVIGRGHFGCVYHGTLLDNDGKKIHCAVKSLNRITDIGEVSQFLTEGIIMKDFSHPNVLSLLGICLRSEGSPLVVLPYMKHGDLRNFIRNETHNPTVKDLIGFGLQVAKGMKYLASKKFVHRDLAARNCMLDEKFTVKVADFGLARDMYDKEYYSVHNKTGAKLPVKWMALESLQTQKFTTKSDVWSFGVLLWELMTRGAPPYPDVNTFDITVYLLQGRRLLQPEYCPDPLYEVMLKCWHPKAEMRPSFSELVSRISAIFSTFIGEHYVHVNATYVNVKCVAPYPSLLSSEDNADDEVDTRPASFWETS

The IC50 is the concentration needed to halve the response being measured. The low end stands for greater potency, the high end for weaker potency. In general, inhibition refers to how much of the control response was suppressed. With `CNCCN(C)C(=O)c1cc(Sc2cnc(Nc3cccc(Br)n3)s2)ccc1C`, the IC50 is > 1000 nM in assay [1]; 1660 nM in [2]; 3060 nM in assay [3]; 180 nM in assay [4]; > 1000 nM in assay [5]; 31 nM in assay [7]. In assay [8], this compound registered an IC50 of 460 nM. For the same compound, the inhibition in assay [6] was determined as 8%.

As to `CC(=O)N1CCN(C(=O)c2cc(Sc3cnc(Nc4cccc(Br)n4)s3)ccc2C)CC1`, the 50% inhibitory concentration (IC50) in assay [1] was > 1000 nM; in assay [2], 1140 nM; in [9] it was > 25000 nM; in assay [3], 2280 nM; in assay [4] it was 490 nM; in [5], > 1000 nM. The concentration for half-maximal inhibition (IC50) in assay [7] was found to be 1 nM; in assay [8] it was 250 nM.

`Cc1ccc(Sc2cnc(Nc3ccccn3)s2)cc1C(=O)NCC#N` displayed an IC50 in assay [7] of 44 nM.

With `CC(=O)N1CCN(C(=O)c2cccc(Sc3cnc(Nc4cccc(C)n4)s3)c2)CC1`, the half-inhibitory concentration (IC50) in assay [7] worked out at 1100 nM.

For `Cc1ccc(Sc2cnc(Nc3cccc(Br)n3)s2)cc1C(=O)N1CCN(C(=O)CN)CC1`, the IC50 in [1] was > 1000 nM; in [2] it was 3060 nM; in assay [3], 4080 nM; in assay [4] it was 540 nM; in [5] it was 430 nM; in assay [7], 0.6 nM. The IC50 in assay [8] is 550 nM.

As for `Cc1ccc(Sc2cnc(Nc3cccc(Br)n3)s2)cc1C(=O)N1CCN(C(=O)[C@@H](C)N)CC1`, the concentration for half-maximal inhibition (IC50) in [1] was 700 nM; in assay [2] it was 1780 nM; in assay [3], 3610 nM; in [4], 230 nM; in assay [5] it was 170 nM; in assay [7], 1 nM. In assay [8], the 50% inhibitory concentration (IC50) was 230 nM.

`Cc1ccc(Sc2cnc(Nc3cccc(Br)n3)s2)cc1C(=O)NCCC#N` yielded a 50% inhibitory concentration (IC50) in assay [7] of 67 nM.

As for `CC(=O)Nc1ncc(Sc2ccc(C)c(C(=O)N3CCN(C(C)=O)CC3)c2)s1`, in assay [7], the IC50 is > 5000 nM.

Take `CC(=O)N1CCN(C(=O)c2cc(Sc3cnc(N)s3)ccc2C)CC1`: the IC50 in [7] is > 5000 nM.

In turn, `CC(=O)N1CCN(C(=O)c2cc(Sc3cnc(Nc4ccccn4)s3)ccc2C)CC1` yielded an IC50 in [7] of 80 nM.

With `Cc1ccc(Sc2cnc(Nc3cccc(Br)n3)s2)cc1C(=O)N1CCN(C(=O)[C@H](C)N)CC1`, the IC50 in assay [1] is 360 nM; in assay [2] it was 4260 nM; in [3] it was 3520 nM; in assay [4] it was 520 nM; in [5], > 1000 nM; in assay [7], 1 nM. Besides, in [8], the half-maximal inhibitory concentration (IC50) worked out at 1150 nM.

In turn, `CC(=O)N1CCN(C(=O)c2cccc(Sc3cnc(Nc4cccc(Br)n4)s3)c2)CC1` returned a 50% inhibitory concentration (IC50) in [7] of 50 nM.

`CC(=O)N1CCN(C(=O)c2cccc(Sc3cnc(Nc4ccc(Br)cn4)s3)c2)CC1`: the IC50 in assay [7] came out at 520 nM.

`C#CCNC(=O)c1cc(Sc2cnc(Nc3ccccn3)s2)ccc1C` gave a concentration for half-maximal inhibition (IC50) in assay [7] of 1200 nM.

In the case of `Cc1ccc(Sc2cnc(Nc3cccc(Br)n3)s2)cc1C(=O)N(C)CCC#N`, the IC50 in assay [2] amounted to 1170 nM; in [3], 3320 nM; in assay [7], 10 nM; in assay [8], 370 nM.

In [7], `Cc1ccc(Sc2cnc(Nc3ccccn3)s2)cc1NC(=O)CC#N` came in with an IC50 of 60 nM.

The compound `Cc1ccc(Sc2cnc(Nc3ccccn3)s2)cc1C(=O)NC(C)C` displayed a 50% inhibitory concentration (IC50) in [7] of 2000 nM.

`CCC(=O)N1CCN(C(=O)c2cc(Sc3cnc(Nc4cccc(Br)n4)s3)ccc2C)CC1` showed an IC50 in [7] of 21 nM.

For `CCN1CCN(C(=O)c2cc(Sc3cnc(Nc4cccc(Br)n4)s3)ccc2C)CC1`, 230 nM corresponded to half-maximal inhibition in assay [7] (IC50).

On to `Cc1ccc(Sc2cnc(Nc3cccc(Br)n3)s2)cc1C(=O)N1CCN(CC(N)=O)CC1`, for which the IC50 in assay [7] is 150 nM.

`CNCCNC(=O)c1cc(Sc2cnc(Nc3ccccn3)s2)ccc1C`: the half-inhibitory concentration (IC50) in assay [7] worked out at 190 nM. The IC50 values of the last two compounds are within 1.5-fold of each other.

As for `Cc1ccc(Sc2cnc(Nc3ccccn3)s2)cc1C(=O)NCCC#N`, in [7], the IC50 worked out at 65 nM.

For `Cc1ccc(Sc2cnc(Nc3ccccn3)s2)cc1C(=O)NCc1ccccc1`, in assay [7], the IC50 is > 5000 nM.

Turning to `Cc1ccc(Sc2cnc(Nc3ccccn3)s2)cc1C(=O)NCCO`, in assay [7], half-maximal inhibition (IC50) was put at 760 nM. This counts as sub-micromolar.

On to `CC(=O)NCCNC(=O)c1cc(Sc2cnc(Nc3ccccn3)s2)ccc1C`, for which, in assay [7], the midpoint of inhibition, the IC50, lay at 320 nM. Against the preceding compound, the IC50 is about 2.4-fold lower.

`CC(=O)N1CCCN(C(=O)c2cc(Sc3cnc(Nc4ccccn4)s3)ccc2C)CC1`: half-maximal inhibition in assay [7] (IC50) was put at 1100 nM.

Take `CC(=O)N1CCN(C(=O)c2cccc(Sc3cnc(Nc4ccccn4)s3)c2)CC1`: the half-maximal inhibitory concentration (IC50) in [7] worked out at 240 nM.

On to `Cc1ccc(Sc2cnc(Nc3cccc(Br)n3)s2)cc1C(=O)N(C)CC#N`, for which the concentration for half-maximal inhibition (IC50) in assay [2] worked out at 750 nM; in assay [3], 3000 nM; in assay [7] it was 2 nM; in assay [8], 390 nM.

In assay [7], `Cc1ccc(Sc2cnc(Nc3ccccn3)s2)cc1C(N)=O` returned a concentration for half-maximal inhibition (IC50) of 790 nM.

In [7], `CC(=O)N1CCN(Cc2cc(Sc3cnc(Nc4ccccn4)s3)ccc2C)CC1` returned an IC50 of 720 nM. This IC50 and that of the compound before are within 1.5-fold of each other.

`CCNC(=O)c1cc(Sc2cnc(Nc3ccccn3)s2)ccc1C`: the IC50 in assay [2] is > 10000 nM; in assay [3], > 10000 nM; in assay [7], > 5000 nM; in assay [8], > 10000 nM.

The compound `COC(=O)N1CCN(C(=O)c2cc(Sc3cnc(Nc4ccccn4)s3)ccc2C)CC1` gave an IC50 in assay [7] of 210 nM.

As to `Cc1ccc(Sc2cnc(Nc3ccccn3)s2)cc1C(=O)N1CCNCC1`, in [7], the IC50 is 160 nM.

For the compound `CC(=O)N1CCN(C(=O)c2ccccc2Sc2cnc(Nc3cccc(Br)n3)s2)CC1`, in [7], half-maximal inhibition (IC50) was put at 1900 nM.

Consider `CC(=O)N1CCN(C(=O)c2ccc(Sc3cnc(Nc4cccc(Br)n4)s3)cc2)CC1`, for which, in assay [7], the IC50 was found to be 1300 nM.

Compound `Cc1ccc(Sc2cnc(Nc3ccccn3)s2)cc1C(=O)N1CCN(S(C)(=O)=O)CC1` displayed an IC50 in assay [7] of 910 nM. This IC50 and that of the compound before are within 1.5-fold of each other.
